For 65 molecules, IC50 results are on record in the Kinase Knowledgebase extract (Sharma et al. 2016).

As a reminder, the IC50 is the concentration needed to halve the response being measured.

The target of this assay is MAPK14 (human) (UniProt Q16539). Briefly: Inhibition of MAPK14 Kinase Activity.
Sequence of MAPK14 (human) (Q16539 whole entry, looked up): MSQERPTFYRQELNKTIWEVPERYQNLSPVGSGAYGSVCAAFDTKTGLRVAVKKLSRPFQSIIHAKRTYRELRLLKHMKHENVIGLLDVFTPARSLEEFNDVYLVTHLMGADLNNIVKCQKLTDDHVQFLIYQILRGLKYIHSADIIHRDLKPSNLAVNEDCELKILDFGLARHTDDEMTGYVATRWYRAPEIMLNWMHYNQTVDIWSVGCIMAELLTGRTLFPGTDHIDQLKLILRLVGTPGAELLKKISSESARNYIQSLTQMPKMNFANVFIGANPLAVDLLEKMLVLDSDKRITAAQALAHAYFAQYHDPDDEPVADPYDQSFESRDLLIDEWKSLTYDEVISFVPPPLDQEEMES

`CCOC(=O)c1sc2c(ccc(=O)n2-c2ccccc2)c1Nc1cccnc1Cl` yielded an IC50 of at most 1 µM.

As to `C=Cc1ccc(-n2c(=O)ccc3c(Nc4ccc(F)cc4F)c(C(=O)OCC)sc32)cc1`, the IC50 is at most 1 µM.

`NC(=O)c1sc2c(ccc(=O)n2-c2ccccc2)c1Nc1cccc(Br)c1` gave an IC50 of at most 1 µM.

Molecule `N#Cc1sc2c(ccc(=O)n2-c2ccccc2)c1Nc1cccc(O)c1` came in with an IC50 of at most 1 µM.

For the molecule `O=C(c1sc2c(ccc(=O)n2-c2ccccc2)c1Nc1ccc(F)cc1)N1CCCC1`, the IC50 is at most 1 µM.

`CCOC(=O)c1sc2c(ccc(=O)n2-c2ccccc2)c1Nc1ccc(F)cc1F` yielded an IC50 of at most 1 µM.

Turning to `N#Cc1sc2c(ccc(=O)n2-c2ccccc2)c1Nc1c(Cl)cccc1Cl`, the IC50 was at most 1 µM.

For the molecule `CCOC(=O)c1sc2c(ccc(=O)n2-c2ccccc2)c1Nc1cccc(Cl)c1`, the concentration for half-maximal inhibition (IC50) is at most 1 µM.

On to `COc1ccc(-n2c(=O)ccc3c(Nc4ccc(F)cc4F)c(C#N)sc32)cc1`, for which the IC50 is at most 1 µM.

On to `O=C(c1sc2c(ccc(=O)n2-c2ccccc2)c1Nc1ccc(F)cc1F)N1CCCC1`, for which the IC50 was at most 1 µM.

The molecule `CCOC(=O)c1sc2c(ccc(=O)n2-c2ccccc2)c1Nc1ccc(OC)c(F)c1` had an IC50 of at most 1 µM.

Regarding `CCOC(=O)c1sc2c(ccc(=O)n2Cc2ccccc2)c1Nc1ccccc1`, the IC50 was at most 1 µM.

On to `Cc1cc(Nc2c(C(N)=O)sc3c2ccc(=O)n3-c2ccsc2)ccc1F`, for which the IC50 was at most 1 µM.

Consider `CCOC(=O)c1sc2c(ccc(=O)n2-c2ccc3[nH]ccc3c2)c1Nc1ccccc1C#N`, for which the concentration for half-maximal inhibition (IC50) is at most 1 µM.

The molecule `CCc1cccc(Nc2c(C#N)sc3c2ccc(=O)n3-c2ccccc2)c1` came in with an IC50 of at most 1 µM.

In turn, `CCOC(=O)c1sc2c(ccc(=O)n2-c2ccc(SC)cc2)c1Nc1cccc(C)c1` came in with an IC50 of at most 1 µM.

Consider `NC(=O)c1sc2c(ccc(=O)n2-c2ccccc2)c1Nc1cccc(Cl)n1`, for which the IC50 is at most 1 µM.

The molecule `Cc1cc(Nc2c(C(N)=O)sc3c2ccc(=O)n3-c2ccccc2Cl)ccc1F` showed an IC50 of at most 1 µM.

On to `NC(=O)c1sc2c(ccc(=O)n2-c2ccccc2)c1Nc1ccccc1Cl`, for which the IC50 was at most 1 µM.

Take `N#Cc1ccccc1Nc1c(C(N)=O)sc2c1ccc(=O)n2-c1ccccc1`: the IC50 is at most 1 µM.

For the molecule `N#Cc1sc2c(ccc(=O)n2-c2ccccc2)c1Nc1c(F)cccc1F`, the IC50 is at most 1 µM.

`CCOC(=O)c1sc2c(ccc(=O)n2-c2ccc(F)cc2)c1Nc1ccccc1C#N` showed an IC50 of at most 1 µM.

With `CN(C)c1ccc(-n2c(=O)ccc3c(Nc4ccccc4)c(C(=O)NCCCn4ccnc4)sc32)cc1`, the 50% inhibitory concentration (IC50) is at most 1 µM.

The molecule `C=Cc1ccc(-n2c(=O)ccc3c(Nc4ccccc4)c(C(N)=O)sc32)cc1` returned an IC50 of at most 1 µM.

Turning to `CCOC(=O)c1sc2c(ccc(=O)n2-c2cccc(C)c2)c1Nc1cccc(C)c1`, the IC50 is at most 1 µM.

`Cc1cccc(Nc2c(C#N)sc3c2ccc(=O)n3-c2ccccc2)c1`: the IC50 was at most 1 µM.

As for `CCOC(=O)c1sc2c(ccc(=O)n2-c2ccc(OCCn3ccnc3C)cc2)c1Nc1ccc(F)cc1F`, the IC50 is at most 1 µM.

The molecule `CCN(CC)CCN(C)C(=O)c1sc2c(ccc(=O)n2-c2ccccc2)c1Nc1ccccc1` registered a half-maximal inhibitory concentration (IC50) of at most 1 µM.

The molecule `CCOC(=O)c1sc2c(ccc(=O)n2-c2ccc3[nH]ccc3c2)c1Nc1ccccc1` had a concentration for half-maximal inhibition (IC50) of at most 1 µM.

Take `NNC(=O)c1sc2c(ccc(=O)n2-c2ccccc2)c1Nc1ccccc1`: the IC50 is at most 1 µM.

In turn, `Cc1ccc(Nc2c(C(N)=O)sc3c2ccc(=O)n3-c2ccccc2)cc1Br` displayed an IC50 of at most 1 µM.

With `CON(C)C(=O)c1sc2c(ccc(=O)n2-c2ccc(N(C)C)cc2)c1Nc1ccccc1`, the IC50 is at most 1 µM.

For `Cc1cccc(Nc2c(C(N)=O)sc3c2ccc(=O)n3-c2ccc(S(C)(=O)=O)cc2)c1`, the IC50 is at most 1 µM.

`NC(=O)c1sc2c(ccc(=O)n2-c2ccccc2)c1Nc1ccccc1OC(F)(F)F` returned an IC50 of at most 1 µM.

For `N#Cc1sc2c(ccc(=O)n2-c2ccccc2)c1Nc1cccc(OC(F)(F)F)c1`, the concentration for half-maximal inhibition (IC50) is at most 1 µM.

As for `Cc1cccc(Nc2c(C(N)=S)sc3c2ccc(=O)n3-c2ccccc2)c1`, the 50% inhibitory concentration (IC50) is at most 1 µM.

`CCNC(=O)c1sc2c(ccc(=O)n2-c2ccccc2)c1Nc1ccccc1`: the IC50 was at most 1 µM.

In turn, `NS(=O)(=O)c1sc2c(ccc(=O)n2-c2ccccc2)c1Nc1ccc(F)cc1F` had an IC50 of at most 1 µM.

`Cc1cccc(Nc2c(C(N)=O)sc3c2ccc(=O)n3CC2CC2)c1`: the IC50 was at most 1 µM.

`NC(=O)c1sc2c(ccc(=O)n2-c2ccccc2)c1Nc1c(Cl)cccc1Cl` came in with an IC50 of at most 1 µM.

As to `CN(C)c1ccc(-n2c(=O)ccc3c(Nc4ccccc4)c(C(=O)NCCN4CCCCC4)sc32)cc1`, the IC50 was at most 1 µM.

Turning to `CCOC(=O)c1sc2c(ccc(=O)n2-c2ccccc2)c1Nc1cc(C)ccc1C#N`, the IC50 was at most 1 µM.

In turn, `Cc1ccccc1-n1c(=O)ccc2c(Nc3ccc(F)cc3F)c(C#N)sc21` came in with an IC50 of at most 1 µM.

In the case of `CCOC(=O)c1sc2c(ccc(=O)n2CC2CC2)c1Nc1ccccc1`, the IC50 is at most 1 µM.

Molecule `CCOC(=O)c1sc2c(ccc(=O)n2-c2ccccc2[N+](=O)[O-])c1Nc1ccc(F)cc1F` returned an IC50 of at most 1 µM.

`CCOC(=O)c1sc2c(ccc(=O)n2-c2ccccc2)c1Nc1ccccc1` showed an IC50 of at most 1 µM.

For `CCOC(=O)c1sc2c(ccc(=O)n2-c2ccc(SC)cc2)c1Nc1ccccc1`, the 50% inhibitory concentration (IC50) was at most 1 µM.

With `O=C(NCCN1CCCCC1)c1sc2c(ccc(=O)n2-c2ccccc2)c1Nc1ccc(F)cc1F`, the IC50 was at most 1 µM.

`CCN1CCN(C(=O)c2sc3c(ccc(=O)n3-c3ccccc3)c2Nc2ccccc2)CC1` yielded an IC50 of at most 1 µM.

`CNC(=O)c1sc2c(ccc(=O)n2-c2ccccc2)c1Nc1ccccc1`: the IC50 is at most 1 µM.

In the case of `O=C(NCCCN1CCOCC1)c1sc2c(ccc(=O)n2-c2ccccc2)c1Nc1ccccc1`, the IC50 is at most 1 µM.

`CCOC(=O)c1sc2c(ccc(=O)n2-c2ccc(F)cc2)c1Nc1cccc(C)c1C#N`: the IC50 is at most 1 µM.

`CCOC(=O)c1sc2c(ccc(=O)n2-c2ccc(Cl)cc2)c1Nc1ccc(F)c(C)c1`: the IC50 is at most 1 µM.

Regarding `N#Cc1sc2c(ccc(=O)n2-c2ccccc2)c1Nc1ccccc1O`, the IC50 is at most 1 µM.

As for `NC(=O)c1sc2c(ccc(=O)n2-c2ccccc2)c1Nc1ccc(F)cc1F`, the half-maximal inhibitory concentration (IC50) was at most 1 µM.

With `CCOC(=O)c1sc2c(ccc(=O)n2-c2ccc(F)cc2)c1Nc1ccc(F)c(C)c1`, the IC50 was at most 1 µM.

Take `Cc1cccc(Nc2c(C(N)=O)sc3c2ccc(=O)n3-c2ccccc2)n1`: the concentration for half-maximal inhibition (IC50) was at most 1 µM.

On to `Cc1ccc(Nc2c(C#N)sc3c2ccc(=O)n3-c2ccccc2)cc1Br`, for which the IC50 is at most 1 µM.

On to `N#Cc1ccccc1Nc1c(C(N)=O)sc2c1ccc(=O)n2-c1ccc2[nH]ccc2c1`, for which the IC50 is at most 1 µM.

With `CCOC(=O)c1sc2c(ccc(=O)n2-c2ccsc2)c1Nc1ccccc1C#N`, the IC50 is at most 1 µM.

In turn, `N#Cc1sc2c(ccc(=O)n2-c2ccccc2)c1Nc1cccc(Cl)n1` showed an IC50 of at most 1 µM.

In turn, `CCOC(=O)c1sc2c(ccc(=O)n2-c2ccccc2)c1Nc1ccc(C#N)c(Cl)c1` displayed an IC50 of at most 1 µM.

Molecule `CCOC(=O)c1sc2c(ccc(=O)n2-c2ccccc2)c1Nc1ccccc1OC` showed an IC50 of at most 1 µM.

On to `CCOC(=O)c1sc2c(ccc(=O)n2-c2ccc(SC)cc2)c1Nc1ccccc1C#N`, for which the IC50 is at most 1 µM.

With `NC(=O)c1sc2c(ccc(=O)n2CC2CC2)c1Nc1ccc(F)c(Cl)c1`, the IC50 was at most 1 µM.
